#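 Cultured in 96-well plates, cells were exposed to test compound for 48 hours across five concentrations. The concentration for 50% growth inhibition is given as GI50. TGI denotes the concentration required for complete inhibition of growth.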
# How the values were obtained:
# Assay in all cases: DTP human tumour cell line panel, 48 h
# [1] = test system: M14 melanoma
# [2] = test system: HOP-62 NSCLC
# [3] = test system: SNB-75 CNS
# [4] = test system: PC-3 prostate
# [5] = test system: EKVX NSCLC
# [6] = test system: LOX IMVI melanoma
# [7] = test system: COLO 205 colon
# [8] = test system: OVCAR-5 ovarian
# [9] = test system: RPMI-8226 leukemia
# [10] = test system: NCI/ADR-RES ovarian
# [11] = test system: A549 NSCLC
# [12] = test system: HCT-15 colon
# [13] = test system: IGROV1 ovarian
# [14] = test system: MALME-3M melanoma
# [15] = test system: 786-0 renal
# [16] = test system: SF-268 CNS
# [17] = test system: SN12C renal
# [18] = test system: BT-549 breast
# [19] = test system: SF-295 CNS
# [20] = test system: CCRF-CEM leukemia
# [21] = test system: UO-31 renal
# [22] = test system: DU-145 prostate
# [23] = test system: HOP-92 NSCLC
# [24] = test system: NCI-H23 lung
# [25] = test system: A498 renal
# [26] = test system: TK-10 renal
# [27] = test system: NCI-H460 lung
# [28] = test system: HCT-116 colon
# [29] = test system: T-47D breast
# [30] = test system: U251 CNS
# [31] = test system: HCC-2998 colon
# [32] = test system: UACC-257 melanoma
# [33] = test system: NCI-H226 lung
# [34] = test system: SF-539 CNS
# [35] = test system: RXF 393 renal
# [36] = test system: OVCAR-8 ovarian
# [37] = test system: HL-60(TB) leukemia
# [38] = test system: SR leukemia
# [39] = test system: HS 578T breast
# [40] = test system: CAKI-1 renal
# [41] = test system: SK-OV-3 ovarian
# [42] = test system: MCF7 breast
# [43] = test system: ACHN renal
# [44] = test system: KM12 colon
# [45] = test system: OVCAR-3 ovarian
# [46] = test system: UACC-62 melanoma
# [47] = test system: MOLT-4 leukemia
# [48] = test system: SW-620 colon
# [49] = test system: SK-MEL-5 melanoma
# [50] = test system: K-562 leukemia
# [51] = test system: SK-MEL-28 melanoma
# [52] = test system: MDA-MB-231 breast
# [53] = test system: SNB-19 CNS
# [54] = test system: MDA-MB-435
# [55] = test system: OVCAR-4 ovarian
# [56] = test system: SK-MEL-2 melanoma
# [57] = test system: HT29 colon
# [58] = test system: NCI-H522 lung
smiles,measurement,setting,value
COc1ccc(N2C(C)=C(C#N)C34C(=O)N(c5ccccc5)C(=O)C3=C(O)C=CC24O)cc1 (stereo not given),GI50,[1],13.6 µM
same,TGI,[1],38.6 µM
same,GI50,[2],22.7 µM
same,TGI,[2],75.8 µM
same,GI50,[3],14.8 µM
same,TGI,[3],44.5 µM
same,GI50,[4],17.1 µM
same,TGI,[4],62.5 µM
same,GI50,[5],22.3 µM
same,TGI,[5],85.8 µM
same,GI50,[6],5.24 µM
same,TGI,[6],18.8 µM
same,GI50,[7],10.8 µM
same,TGI,[7],23.2 µM
same,GI50,[8],18.1 µM
same,TGI,[8],73.8 µM
same,GI50,[9],3.44 µM
same,TGI,[9],19.3 µM
same,GI50,[10],29 µM
same,TGI,[10],91 µM
same,GI50,[11],26.3 µM
same,TGI,[11],> 100 µM
same,GI50,[12],13.8 µM
same,TGI,[12],33.8 µM
same,GI50,[13],2.11 µM
same,TGI,[13],21.1 µM
same,GI50,[14],19.2 µM
same,TGI,[14],53.4 µM
same,GI50,[15],19 µM
same,TGI,[15],65.8 µM
same,GI50,[16],16.6 µM
same,TGI,[16],80.2 µM
same,GI50,[17],10 µM
same,TGI,[17],21.9 µM
same,GI50,[18],9.75 µM
same,TGI,[18],22.4 µM
same,GI50,[19],3.49 µM
same,TGI,[19],15.1 µM
same,GI50,[20],3.09 µM
same,TGI,[20],15.6 µM
same,GI50,[21],13.9 µM
same,TGI,[21],55.8 µM
same,GI50,[22],10.5 µM
same,TGI,[22],26.8 µM
same,GI50,[23],12.5 µM
same,TGI,[23],45.3 µM
same,GI50,[24],8.86 µM
same,TGI,[24],58 µM
same,GI50,[25],18.6 µM
same,TGI,[25],48.2 µM
same,GI50,[26],21.5 µM
same,TGI,[26],89 µM
same,GI50,[27],14.6 µM
same,TGI,[27],61.4 µM
same,GI50,[28],9.73 µM
same,TGI,[28],25.5 µM
same,GI50,[29],13 µM
same,TGI,[29],33.8 µM
same,GI50,[30],13 µM
same,TGI,[30],25.7 µM
same,GI50,[31],9.88 µM
same,TGI,[31],23.6 µM
same,GI50,[32],30.1 µM
same,TGI,[32],> 100 µM
same,GI50,[33],13.5 µM
same,TGI,[33],35.1 µM
same,GI50,[34],6.82 µM
same,TGI,[34],25.3 µM
same,GI50,[35],3.15 µM
same,TGI,[35],14.7 µM
same,GI50,[36],23.3 µM
same,TGI,[36],> 100 µM
same,GI50,[37],15.5 µM
same,TGI,[37],65.9 µM
same,GI50,[38],5.98 µM
same,TGI,[38],50.4 µM
same,GI50,[39],24.1 µM
same,TGI,[39],> 100 µM
same,GI50,[40],2.65 µM
same,TGI,[40],16.6 µM
same,GI50,[41],36.2 µM
same,TGI,[41],> 100 µM
same,GI50,[42],10.6 µM
same,TGI,[42],34.9 µM
same,GI50,[43],18.2 µM
same,TGI,[43],45.6 µM
same,GI50,[44],10 µM
same,TGI,[44],26.6 µM
same,GI50,[45],1.76 µM
same,TGI,[45],10.4 µM
same,GI50,[46],5.06 µM
same,TGI,[46],18.7 µM
same,GI50,[47],21.2 µM
same,TGI,[47],71.7 µM
same,GI50,[48],10.3 µM
same,TGI,[48],24.6 µM
same,GI50,[49],11.4 µM
same,TGI,[49],28.2 µM
same,GI50,[50],28.3 µM
same,TGI,[50],> 100 µM
same,GI50,[51],12 µM
same,TGI,[51],30.1 µM
same,GI50,[52],14.5 µM
same,TGI,[52],29.8 µM
same,GI50,[53],18.4 µM
same,TGI,[53],50.2 µM
same,GI50,[54],5.5 µM
same,TGI,[54],28.7 µM
same,GI50,[55],24.4 µM
same,TGI,[55],94.5 µM
same,GI50,[56],19.5 µM
same,TGI,[56],46.3 µM
same,GI50,[57],12.3 µM
same,TGI,[57],28.3 µM
COC(=O)[C@]12CC[C@@H](C)[C@H](C)[C@@H]1C1=CC[C@@H]3[C@@]4(C)C[C@@H](OC(C)=O)[C@H](O)[C@@](C)(COC(C)=O)[C@@H]4[C@H](O)C[C@@]3(C)[C@]1(C)CC2,GI50,[1],1.96 µM
same,TGI,[1],5.09 µM
same,GI50,[2],1.89 µM
same,TGI,[2],4.1 µM
same,GI50,[3],2.35 µM
same,TGI,[3],11.7 µM
same,GI50,[4],1.86 µM
same,TGI,[4],7.05 µM
same,GI50,[5],2.22 µM
same,TGI,[5],6.69 µM
same,GI50,[6],1.64 µM
same,TGI,[6],3.1 µM
same,GI50,[7],1.63 µM
same,TGI,[7],3.2 µM
same,GI50,[8],2.23 µM
same,TGI,[8],7.61 µM
same,GI50,[9],2.4 µM
same,TGI,[9],8.06 µM
same,GI50,[10],2.68 µM
same,TGI,[10],7.54 µM
same,GI50,[11],2.21 µM
same,TGI,[11],8.34 µM
same,GI50,[12],2.51 µM
same,TGI,[12],9.01 µM
same,GI50,[13],1.87 µM
same,TGI,[13],4.81 µM
same,GI50,[58],1.94 µM
same,TGI,[58],4.33 µM
same,GI50,[14],2.36 µM
same,TGI,[14],6.25 µM
same,GI50,[15],1.89 µM
same,TGI,[15],4.84 µM
same,GI50,[16],3.11 µM
same,TGI,[16],13.6 µM
same,GI50,[18],2.18 µM
same,TGI,[18],5.71 µM
same,GI50,[19],1.82 µM
same,TGI,[19],4.07 µM
same,GI50,[20],2.54 µM
same,TGI,[20],6.34 µM
same,GI50,[21],2.01 µM
same,TGI,[21],7.2 µM
same,GI50,[22],3.48 µM
same,TGI,[22],11.9 µM
same,GI50,[23],1.53 µM
same,TGI,[23],5.68 µM
same,GI50,[24],2.73 µM
same,TGI,[24],8.44 µM
same,GI50,[25],2.04 µM
same,TGI,[25],7.4 µM
same,GI50,[26],2.68 µM
same,TGI,[26],8.97 µM
same,GI50,[27],2.05 µM
same,TGI,[27],4.02 µM
same,GI50,[28],1.95 µM
same,TGI,[28],4.11 µM
same,GI50,[29],2.44 µM
same,TGI,[29],8.02 µM
same,GI50,[30],1.87 µM
same,TGI,[30],4.01 µM
same,GI50,[31],2.14 µM
same,TGI,[31],4.57 µM
same,GI50,[32],2.06 µM
same,TGI,[32],5.92 µM
same,GI50,[33],3.19 µM
same,TGI,[33],8.54 µM
same,GI50,[34],3.47 µM
same,TGI,[34],13.3 µM
same,GI50,[35],2.13 µM
same,TGI,[35],5.05 µM
same,GI50,[36],2.36 µM
same,TGI,[36],5.91 µM
same,GI50,[37],2.11 µM
same,TGI,[37],5.42 µM
same,GI50,[38],1.72 µM
same,TGI,[38],4.31 µM
same,GI50,[39],2.95 µM
same,TGI,[39],12.6 µM
same,GI50,[40],2.82 µM
same,TGI,[40],10.9 µM
same,GI50,[41],3.27 µM
same,TGI,[41],10.3 µM
same,GI50,[42],2.01 µM
same,TGI,[42],5.71 µM
same,GI50,[43],2.83 µM
same,TGI,[43],9.17 µM
same,GI50,[44],2.65 µM
same,TGI,[44],7.9 µM
same,GI50,[45],2.74 µM
same,TGI,[45],7.24 µM
same,GI50,[47],1.66 µM
same,TGI,[47],4.24 µM
same,GI50,[48],2.75 µM
same,TGI,[48],8.76 µM
same,GI50,[49],1.78 µM
same,TGI,[49],3.66 µM
same,GI50,[50],2.33 µM
same,TGI,[50],6.06 µM
same,GI50,[51],2.42 µM
same,TGI,[51],6.7 µM
same,GI50,[52],1.87 µM
same,TGI,[52],4.81 µM
same,GI50,[53],2.78 µM
same,GI50,[54],2.95 µM
same,TGI,[54],10.7 µM
same,GI50,[55],3.23 µM
same,TGI,[55],14.2 µM
same,GI50,[56],2.84 µM
same,TGI,[56],7.39 µM
same,GI50,[57],1.82 µM
same,TGI,[57],3.7 µM

# Reference: PubChem BioAssay (NCI)
